Data reported in patent publication US12017975B2, “Myc-Max inhibitor compound therapeutics for cancer treatment, methods and uses associated therewith” (THE UNIVERSITY OF BRITISH COLUMBIA, priority 2018, dated 2024).
“Also recorded” adds a separate entry of the source. Where two headings read alike, the source gives them in different places.

How the values were obtained:
[1] = tested on: Myc-Max/UBE2C downstream pathway; assay: UBE2C promoter luciferase reporter assay in 22rv1 cells; assay type: cell-based; settings: for inhibition at 25 µM: Homo sapiens
Protocol: (§1) Cell transfection was performed using TransIT-2020™ transfection reagents according to the manufacturer's instructions (Mirus™). LNCaP cells were plated at 10000 cells per well and treated for 1 day with the indicated concentration of compound. Myc reporter activity was measured using the Cignal Myc Reporter Assay Kit™ from Qiagen™ (#336841) according to the manufacturer's instructions. For the UBE2C reporter assay, 22rv1 cells were plated at 10000 cells per well in 96-well plates in RPMI media supplemented with 5% charcoal-stripped serum (CSS) and treated for 1 day with 1 μM, 10 μM and 25 μM of compound.
Myc inhibition was recently reported to reduce levels of the constitutively active androgen receptor splice variant AR-V7 in 22rv1 cells. […] The dose-dependent reduction of luciferase levels by the identified hits indicates a Myc-related reduction of AR-V7 level in the cells (see TABLE 1). […] The AR-V7 reduction with the hits was confirmed by Western blot (FIG. 2B).

LNCaP cells [2] = assay: LNCaP cell viability (PrestoBlue); assay type: cell-based; settings: Homo sapiens; for IC50: 96 hours, 0-25 μM, read-out: IC50 LNCaP cell proliferation / viability
Protocol: (§2) LNCaP were plated at 5000 cells per well in RPMI 1640 containing 5% CSS in a 96-well plate, treated with test compounds (0-25 μM) for 96 hours. Cell density was measured using the PrestoBlue™ assay according to the manufacturer's protocol. The percentage of cell survival was normalized to the cell density of control wells treated by vehicle. Viability of Myc-negative […] cells was done similarly but in DMEM supplemented with 5% CSS.
(§3) The effect of hit compounds on Myc-driven cell proliferation was evaluated by measuring the cell viability of LNCaP cells after treatment with increasing concentrations of compounds.

[3] = Cell viability of Myc negative (c-Myc knockout) HO15.19 cells; assay type: cell-based; settings: rat, HO15.19 cells (c-Myc knockout, Myc-negative); 25 μM; read-out: % inhibition of Myc negative HO15.19 cells (cytotoxicity)
Protocol: as §2, §3

Myc-Max complex = molecular target: T1, Myc-Max complex (Homo sapiens, UniProt P01106+P61244); assay: Biolayer interferometry of Myc-Max binding to biotinylated E-box DNA; settings: for Myc-Max interaction with immobilized E-box DNA: 500 μM compound (FIG. 3C); for BLI binding: TABLE 2
T1 construct: GST tagged Myc (residues 368-454); Histidine tagged Max (residues 23-102); made in house; host or cells: E. coli BL21-DE3
Protocol: Histidine tagged Max (residues 23-102) and GST tagged Myc (residues 368-454) were overexpressed in E. coli BL21-DE3 cells. Cells were co-lyzed in lysis buffer (20 mM Tris pH 8, 500 mM NaCl, 5% glycerol, 10 mM imidazole, 8 mM BME, 2.1 mM PMSF). After sonication and centrifugation, the complex was first purified by using a Ni-NTA affinity resin. After overnight dialysis to remove the imidazole, the protein sample was applied to a size exclusion chromatography equilibrated with (20 mM Tris pH 8, 150 mM NaCl, 5% glycerol, 0.2 mM TCEP). Fractions containing equal amount of Myc and Max on SDS PAGE were collected and used for the binding assay. The presence of both proteins was validated by Western blot using a specific antibody of each protein (Max (h2) Sc-8011 and c-Myc (9E10) Sc-40, Santa Cruz Biotechnology™)
The direct interaction between biotinylated E-box oligo ([…]) immobilized on a streptavidin biosensor and a purified Myc-Max complex (0.05 mg/ml) was quantified by BLI using OctetRED (ForteBio™). The DNA was first bound to the super-streptavidin sensors over 1000 sec at 25° C. The sensors were next moved into wells containing the reaction buffer (20 mM Tris pH 8, 150 mM NaCl, 5% glycerol, 0.2 mM TCEP, 5% dimethylsulfoxide) for measuring the baseline and next into the Myc-Max complex alone or in presence of the tested inhibitors to study the association of the complex to the DNA.
Direct Binding and disruption of protein-DNA interaction. To study the direct effect of our hit compounds VPC-70063 and VPC-70067 on the interaction between Myc-Max heterodimer and the DNA, we used Bio-Layer Interferometry (BLI, ForteBio™). This technique is a label-free technology allowing the measurement of direct interactions between two partners, one immobilized on a sensor and the other one present in a solution. We applied this technology to study the disruption of the interaction between a biotinylated E-box oligo immobilized on a streptavidin biosensor and a purified Myc-Max complex in presence of our compounds. Therefore, histidine-tagged Max (residues 23-102) and GST tagged Myc (residues 368-454) were overexpressed and co-purified. The fraction containing equal amount of Myc and Max was collected and used for the binding assay (FIG. 3B). The presence of both proteins was validated by Western blot using a specific antibody of each protein. […] Additionally, we tested the ability of our best compound VPC-70063 to disrupt the interaction of MYC/MAX with DNA in a dose dependent manner.

[4] = tested on: Myc-Max transcriptional activity; assay: Cignal c-Myc luciferase reporter assay in LNCaP cells; assay type: cell-based; settings: Homo sapiens
Protocol: as §1
Compounds were subjected to experimental evaluation using the commercially available transcriptional assay Cignal c-Myc luciferase reporter assay in LNCaP cells. […] A transiently transfected Myc-driven luciferase reporter allowed the monitoring of Myc-regulated signal in LNCaP upon treatment with the in silico identified compounds.

Myc-Max interaction = molecular target: T2, Myc-Max interaction (Homo sapiens, UniProt P01106); assay: Mammalian two-hybrid assay in PC3 cells; assay type: cell-based; settings: various concentrations
T2 construct: expressed in transfected cells; host or cells: PC3 cells
Protocol: Full lengths Myc and Max were cloned in pBIND and pACT plasmids (CheckMate™, Promega™), respectively. PC3 cells in RPMI 1640 supplemented with 5% FBS were seeded in 96-well plates at 5,000 cells/well. After 24 hours, cells were transfected with 15 ng of pACT-Max, 19.5 ng of pBIND-Myc, and 13.6 ng of the reporter plasmid PG5-luciferase. After 24 hours, cells were treated with various concentrations of the tested inhibitors. Cells were lysed the next day, and the luminescence signal was measured after adding 50 μL of luciferase assay reagent (Promega™). Each measurement was done in 4 replicates with biological replicates of 3. Luciferase levels corresponding to Myc-Max interactions were measured and normalized to a control provided by the commercial kit to discard non-specific effect due to toxicity or direct luciferase inhibition.
The effect of inhibitors of Myc-Max interaction was studied by using a mammalian two hybrid assay. Full lengths Myc and Max were cloned in pBIND and pACT plasmids (CheckMate™, Promega™), respectively. Luciferase levels corresponding to Myc-Max interactions were measured and normalized to a control provided by the commercial kit to discard non-specific effect due to toxicity or direct luciferase inhibition.

HO15.19 cells = assay: Cell viability of Myc negative (c-Myc knockout) HO15.19 cells; assay type: cell-based; settings: for inhibition at 12 µM: read-out: % inhibition Myc K.O cells (12 uM)
Protocol: as §2, §3

LNCaP cells [5] = assay: PARP cleavage (apoptosis) by Western blot in LNCaP cells; assay type: cell-based; settings: for PARP effect: TABLE 2, LNCaP cells; for PARP cleavage / apoptosis: LNCaP cells, Western blot
Protocol: After 48 hours of treatment with Myc compounds, LNCaP cells were lysed, and protein sample preparation followed by Western blotting were performed. Blots were incubated with primary antibodies against c-Myc, PARP (Sigma™ 084M4766V), PARP cleaved-Asp214 (Sigma™ SAB4500487) and β-Actin (Sigma™ A2066) overnight at 4° C., followed by appropriate peroxidase-conjugated secondary antibodies. β-actin served as an internal control. Visualization of the immunocomplexes was done by an enhanced chemiluminescence detection system (Millipore™) followed by exposure to X-ray films.
Apoptosis. Myc inhibition induces cell death by cell cycle arrest and apoptosis. Cleavage of PARP-1 by caspases is considered a hallmark of apoptosis and so we measured the ability of compounds to induce PARP cleavage after treatment.

[6] = LNCaP, 24 h, 25 μM, LNCaP cells, TABLE 1, read-out: Myc-Max transcriptional activity % inhibition (25 μM)
[7] = LNCaP, 25 μM, TABLE 3, read-out: % Inhibition 25 μM
[8] = LNCaP, TABLE 2, assay not named, values match Myc-Max transcriptional activity, read-out: IC50
[9] = LNCaP cells, dose response, Cignal c-Myc kit, read-out: IC50 Myc-Max transcriptional activity
[10] = LNCaP, 25 μM, TABLE 4, read-out: % Inhibition (25 μM)

T1 sequence (P01106 368-454): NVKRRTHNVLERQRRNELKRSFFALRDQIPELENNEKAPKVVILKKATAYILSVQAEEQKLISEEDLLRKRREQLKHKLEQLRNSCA
T1 sequence (P61244 23-102): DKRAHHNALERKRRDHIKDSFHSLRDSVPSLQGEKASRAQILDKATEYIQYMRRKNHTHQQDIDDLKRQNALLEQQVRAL
T2 sequence (P01106 whole entry): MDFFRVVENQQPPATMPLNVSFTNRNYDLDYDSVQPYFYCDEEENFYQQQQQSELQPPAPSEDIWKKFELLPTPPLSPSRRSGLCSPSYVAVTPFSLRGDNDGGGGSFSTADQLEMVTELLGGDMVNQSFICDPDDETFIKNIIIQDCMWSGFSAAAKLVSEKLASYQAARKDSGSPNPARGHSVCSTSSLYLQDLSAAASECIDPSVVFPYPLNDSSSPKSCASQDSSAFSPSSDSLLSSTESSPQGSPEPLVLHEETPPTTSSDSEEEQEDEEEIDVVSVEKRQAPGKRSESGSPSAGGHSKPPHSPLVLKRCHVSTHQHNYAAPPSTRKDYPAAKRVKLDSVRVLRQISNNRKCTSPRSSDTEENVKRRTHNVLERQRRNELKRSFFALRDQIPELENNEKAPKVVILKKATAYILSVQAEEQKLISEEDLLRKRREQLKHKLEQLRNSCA

| BLI binding (Myc-Max complex) | IC50 [4, 8] | SMILES | inhibition at 25 µM [1] | inhibition at 25 µM [4, 6] | inhibition at 12 µM (HO15.19 cells; Rattus norvegicus, HO15.19) | PARP effect (LNCaP cells [5]) | inhibition at 25 µM [4, 7] | further results |
| --- | --- | --- | --- | --- | --- | --- | --- | --- |
| – | – | CCc1ccc(/C=C2\SC(=S)NC2=O)cc1 [Compound 10058-F4, [Z,E]-5-[4-ethylbenzylidine]-2-thioxothiazolidin-4-one, reference compound] | 70% | – | – | – | – | IC50 (LNCaP cells [2]): 18.3 µM |
| – | – | O=[N+]([O-])c1ccc(Nc2ccccc2-c2ccccc2)c2nonc12 [Compound 10074-G5, reference compound] | – | 88% | – | – | – | inhibition at 96 h, 25 µM [3]: 37%; Myc-Max interaction with immobilized E-box DNA (Myc-Max complex): prevented from interacting with the immobilized DNA; effect on Myc-Max interaction (Myc-Max interaction): did not show any effect; IC50 (LNCaP cells [2]): 8.7 µM |
| average | 10 µM | NC(=O)c1ccsc1NC(=O)Nc1cccc(C(F)(F)F)c1 [VPC-70021] | 73% | 95% | 0% | nil | 95% | IC50 [4, 9]: 8.5 µM |
| weak | 10 µM | CC(=O)Nc1ccc(Nc2cc(Cl)c(C(F)(F)F)cc2[N+](=O)[O-])cc1 [VPC-70033] | 51% | 81% | – | nil | 81% | – |
| – | 11 µM | S=C(NCc1ccc(Cl)c(Cl)c1)Nc1cccnc1 [VPC-70053] | 50% | 73% | – | – | 73% | – |
| strong | 9 µM | FC(F)(F)c1cc(NC(=S)NCc2ccccc2)cc(C(F)(F)F)c1 [VPC-70063, 1-benzyl-3-(3,5-bis(trifluoromethyl)phenyl)thiourea] | 94% | 106% | 35% | strong | 106% | reduction of UBE2C promotor activity [1]: highest reduction of UBE2C promotor activity; effect on c-Myc knockout cells (HO15.19 cells; 3 μM): no significant effect; inhibition at 2.5 µM (HO15.19 cells; Rattus norvegicus, HO15.19, 2.5 μM (IC50 in LNCaP cells)): ~7%; inhibition at 96 h, 25 µM [3]: 40%; Myc-Max interaction with immobilized E-box DNA (Myc-Max complex): prevented from interacting with the immobilized DNA; effect on Myc-Max/DNA complex dissociation (Myc-Max complex; concentration below 100 μM): did not see any significant effect; MYC/MAX binding to DNA (Myc-Max complex; concentration higher than 100 μM): dose response decrease of the MYC/MAX binding to DNA; PARP cleavage / apoptosis (LNCaP cells [5]): inducing PARP cleavage; also recorded: induces apoptosis; IC50 [4, 9]: 8.9 µM; effect on Myc-Max interaction (Myc-Max interaction): dose response inhibition of the interaction between the two proteins; inhibition at 3 µM (LNCaP cells [2]; 3 μM, read-out: % of LNCaP cells inhibited): 70%; IC50 (LNCaP cells [2]): 2.5 µM |
| – | – | CN1C(=O)/C(=C\C=C\c2ccco2)SC1=S [VPC-70064] | 64% | 78% | – | – | – | inhibition at 25 µM [4, 10]: 78% |
| strong | 22 µM | O=C1NC(=S)S/C1=C\c1ccccc1C(F)(F)F [VPC-70067] | 71% | 98% | 3% | good | – | Myc-Max interaction with immobilized E-box DNA (Myc-Max complex): prevented from interacting with the immobilized DNA; PARP cleavage / apoptosis (LNCaP cells [5]): inducing PARP cleavage; inhibition at 25 µM [4, 10]: 98%; IC50 [4, 9]: 22.7 µM; IC50 (LNCaP cells [2]): 11.1 µM |
| – | – | CC(C)(C)[C@H]1CCc2sc(C(=O)N3CCC(C(N)=O)CC3)cc2C1 [VPC-70068] | 58% | 73% | – | average | 73% | – |
| – | 20 µM | S=C(NCc1ccncc1)Nc1cc(Cl)cc(Cl)c1 [VPC-70084] | – | – | – | weak | 80% | – |
| weak | 1 µM | O=C(NNc1ccc(C(F)(F)F)cc1[N+](=O)[O-])c1cnccn1 [VPC-70127] | – | – | 19% | strong | – | inhibition at 25 µM ([4]; LNCaP, 25 μM, TABLE 6, read-out: % Inhibition 25 μM): 106% |
| – | 20 µM | O=C(NCc1cnn(Cc2ccccc2)c1)[C@@H]1COc2ccccc2O1 [VPC-70215] | – | – | 29% | weak | 101% | – |
| – | 10 µM | O=C(CCc1c[nH]c2ccccc12)Nc1nc2ccccc2[nH]1 [VPC-70223] | – | – | 40% | – | 103% | – |

| SMILES | BLI binding (Myc-Max complex) | IC50 [4, 8] | inhibition at 25 µM [1] | inhibition at 25 µM [4, 6] | inhibition at 12 µM (HO15.19 cells; Rattus norvegicus, HO15.19) | PARP effect (LNCaP cells [5]) | inhibition at 25 µM [4, 7] | further results |
| --- | --- | --- | --- | --- | --- | --- | --- | --- |
| CC(C)C[C@H](NC(=O)C(Cc1ccccc1)NC(=O)CNC(=O)[C@H](C)NC(=O)[C@@H](N)Cc1ccc(O)cc1)C(=O)OCc1ccccc1 (stereo partly drawn) [VPC-70413] | weak | – | – | – | – | weak | – | IC50 ([4]; LNCaP): 15 µM; inhibition at 25 µM ([4]; LNCaP, read-out: % Inhibition 25 μM): 114% |
